# Data taken from patent US8999970B2, “Administration of an anti-obesity compound to individuals with renal impairment” (Arena Pharmaceuticals, Inc., priority 2010, dated 2015).
# Where “and” joins values, the source holds several entries; their conditions need not be identical. Identical values can stand only once.
# Key:
# [1] = APD356-009 study: M1 Cmax at Week 12 following lorcaserin 10 mg BID
# [2] = tested on: panel of receptors, ion channels and transporters; test: Pharmacological activity of metabolites at a panel of receptors, ion channels and transporters
# [3] = Toxicity studies in mice (determination of NOAEL); assay type: in vivo, mouse
# Protocol: In the mouse, seizures occurred at single doses of 100 and 300 mg/kg lorcaserin, and death followed single doses of 1000 and 2000 mg/kg. In repeat dose studies in mice, mortality occurred at
# doses ≧200 mg/kg. A dose of 250 mg/kg/day produced exposure multiples of 25 and 27 times (males and females) the exposure achieved in humans at a dose of 10 mg BID. At this dose, decreased red blood cell mass, increased reticulocytosis, increased liver weight, centrilobular hepatocellular hypertrophy, increased extramedullary hematopoeisis, and thymic necrosis occurred. The NOAEL in mice was 50 mg/kg/day, which produced exposure multiples of 7.6 and 2.3 (males and females) times the exposure in humans at 10 mg BID.
# [4] = Adverse events in the renal impairment clinical study APD356-016; assay type: in vivo, human
# Text: The incidence of adverse events was not related to severity of renal impairment. Events considered possibly or probably related to lorcaserin included 1 event each of abdominal pain (moderate group), diarrhea (moderate group), dyspepsia (mild group), stomach discomfort (mild group), and worsening renal impairment (moderate group). Two events of dizziness (1 in severe group, one in ESRD group) and 3 events of headache (2 normal, 1 moderate group) were considered possibly/probably related to study drug. A summary of the Treatment Emergent Adverse Events in the APD356-016 study by renal impairment groups and relationship to study drug are listed in Table 11.
# [5] = Creatinine and creatinine clearance during 52 weeks in pooled phase 3 studies; assay type: in vivo, human
# Protocol: Few patients in the APD356-009 trial developed creatinine values above or creatinine clearance values below normal (Table 12). At study entry, no patient had creatinine clearance less than 30 mL/min, and only 4 (1 randomized to lorcaserin, 3 to placebo) had values below 40 mL/min based on ideal body weight. […] Given the small number of patients with moderate or greater renal impairment in the phase 3 studies, a meaningful evaluation of the relationship between adverse events and renal impairment is not possible.
smiles,measurement,setting,value
"C[C@H]1CN(S(=O)(=O)O)CCc2ccc(Cl)cc21 [Compound M1, lorcaserin sulfamate]",Mean Cmax observed in patients,[1],196 ng/mL
same,"Activity at serotonin receptors or at a panel of more than 60 GPCRs, transporters and ion channels",[2],neither metabolite is active
same,"Pharmacological activity against a panel of receptors, ion channels and transporters",[2]; concentration of 10 μM,pharmacologically inactive
"C[C@H]1CN(C(=O)O[C@@H]2O[C@H](C(=O)O)[C@@H](O)[C@H](O)[C@H]2O)CCc2ccc(Cl)cc21 [Compound M5, N-carbamoyl glucuronide of lorcaserin]","Activity at serotonin receptors or at a panel of more than 60 GPCRs, transporters and ion channels",[2],neither metabolite is active
same,"Pharmacological activity at all receptors, transporters and ion channels tested to date",[2],pharmacologically inactive
"C[C@H]1CNCCc2ccc(Cl)cc21 [Lorcaserin, (R)-8-chloro-1-methyl-2,3,4,5-tetrahydro-1H-3-benzazepine]",NOAEL,"[3]; both sexes, mouse, in vivo, mice",50 mg/kg/day
same,Exposure multiple of human exposure at 10 mg BID,"[3]; mice 50 mg/kg/day (NOAEL), females",2.3 times
same,Exposure multiple of human exposure at 10 mg BID,"[3]; mice 50 mg/kg/day (NOAEL), males",7.6 times
same,Exposure multiple of human exposure at 10 mg BID,"[3]; mice 250 mg/kg/day, females",27 times
same,Exposure multiple of human exposure at 10 mg BID,"[3]; mice 250 mg/kg/day, males",25 times
same,Doses at which mortality occurred,"[3]; mice, repeat dose studies",≥ 200 mg/kg
same,Single doses followed by death,[3]; mouse,1000 mg/kg and 2000 mg/kg
same,Events of dizziness possibly/probably related,"[4]; 1 severe group, one ESRD group",Two
same,Events of headache possibly/probably related,"[4]; 2 normal, 1 moderate group",3
same,Number (%) of Subjects Reporting AEs,[4]; End Stage (N = 8),1 (12.5%)
same,Number (%) of Subjects Reporting AEs By Maximum Intensity: Mild,[4]; End Stage (N = 8),1 (12.5%)
same,Number (%) of Subjects Reporting AEs By Maximum Intensity: Moderate,[4]; End Stage (N = 8),0 (0.0%)
same,Number (%) of Subjects Reporting AEs By Maximum Intensity: Severe,[4]; End Stage (N = 8),0 (0.0%)
same,Number (%) of Subjects Reporting AEs By Most Direct Relationship to Study Treatment: Not Related,[4]; End Stage (N = 8),1 (12.5%)
same,Number (%) of Subjects Reporting AEs By Most Direct Relationship to Study Treatment: Possible,[4]; End Stage (N = 8),0 (0.0%)
same,Number (%) of Subjects Reporting AEs By Most Direct Relationship to Study Treatment: Probable,[4]; End Stage (N = 8),0 (0.0%)
same,Number (%) of Subjects Reporting AEs By Most Direct Relationship to Study Treatment: Unlikely,[4]; End Stage (N = 8),0 (0.0%)
same,Number of AEs Reported,[4]; End Stage (N = 8),1
same,Number (%) of Subjects Reporting AEs,[4]; Mild (N = 8),2 (25.0%)
same,Number (%) of Subjects Reporting AEs By Maximum Intensity: Mild,[4]; Mild (N = 8),2 (25.0%)
same,Number (%) of Subjects Reporting AEs By Maximum Intensity: Moderate,[4]; Mild (N = 8),0 (0.0%)
same,Number (%) of Subjects Reporting AEs By Maximum Intensity: Severe,[4]; Mild (N = 8),0 (0.0%)
same,Number (%) of Subjects Reporting AEs By Most Direct Relationship to Study Treatment: Not Related,[4]; Mild (N = 8),0 (0.0%)
same,Number (%) of Subjects Reporting AEs By Most Direct Relationship to Study Treatment: Possible,[4]; Mild (N = 8),1 (12.5%)
same,Number (%) of Subjects Reporting AEs By Most Direct Relationship to Study Treatment: Probable,[4]; Mild (N = 8),1 (12.5%)
same,Number (%) of Subjects Reporting AEs By Most Direct Relationship to Study Treatment: Unlikely,[4]; Mild (N = 8),0 (0.0%)
same,Number of AEs Reported,[4]; Mild (N = 8),3
same,Number (%) of Subjects Reporting AEs,[4]; Moderate (N = 8),5 (62.5%)
same,Number (%) of Subjects Reporting AEs By Maximum Intensity: Mild,[4]; Moderate (N = 8),4 (50.0%)
same,Number (%) of Subjects Reporting AEs By Maximum Intensity: Moderate,[4]; Moderate (N = 8),1 (12.5%)
same,Number (%) of Subjects Reporting AEs By Maximum Intensity: Severe,[4]; Moderate (N = 8),0 (0.0%)
same,Number (%) of Subjects Reporting AEs By Most Direct Relationship to Study Treatment: Not Related,[4]; Moderate (N = 8),1 (12.5%)
same,Number (%) of Subjects Reporting AEs By Most Direct Relationship to Study Treatment: Possible,[4]; Moderate (N = 8),3 (37.5%)
same,Number (%) of Subjects Reporting AEs By Most Direct Relationship to Study Treatment: Probable,[4]; Moderate (N = 8),0 (0.0%)
same,Number (%) of Subjects Reporting AEs By Most Direct Relationship to Study Treatment: Unlikely,[4]; Moderate (N = 8),1 (12.5%)
same,Number of AEs Reported,[4]; Moderate (N = 8),9
same,Number (%) of Subjects Reporting AEs,[4]; Normal (N = 8),4 (50.0%)
same,Number (%) of Subjects Reporting AEs By Maximum Intensity: Mild,[4]; Normal (N = 8),4 (50.0%)
same,Number (%) of Subjects Reporting AEs By Maximum Intensity: Moderate,[4]; Normal (N = 8),0 (0.0%)
same,Number (%) of Subjects Reporting AEs By Maximum Intensity: Severe,[4]; Normal (N = 8),0 (0.0%)
same,Number (%) of Subjects Reporting AEs By Most Direct Relationship to Study Treatment: Not Related,[4]; Normal (N = 8),0 (0.0%)
same,Number (%) of Subjects Reporting AEs By Most Direct Relationship to Study Treatment: Possible,[4]; Normal (N = 8),1 (12.5%)
same,Number (%) of Subjects Reporting AEs By Most Direct Relationship to Study Treatment: Probable,[4]; Normal (N = 8),1 (12.5%)
same,Number (%) of Subjects Reporting AEs By Most Direct Relationship to Study Treatment: Unlikely,[4]; Normal (N = 8),2 (25.0%)
same,Number of AEs Reported,[4]; Normal (N = 8),4
same,Number (%) of Subjects Reporting AEs,[4]; Severe (N = 8),3 (37.5%)
same,Number (%) of Subjects Reporting AEs By Maximum Intensity: Mild,[4]; Severe (N = 8),3 (37.5%)
same,Number (%) of Subjects Reporting AEs By Maximum Intensity: Moderate,[4]; Severe (N = 8),0 (0.0%)
same,Number (%) of Subjects Reporting AEs By Maximum Intensity: Severe,[4]; Severe (N = 8),0 (0.0%)
same,Number (%) of Subjects Reporting AEs By Most Direct Relationship to Study Treatment: Not Related,[4]; Severe (N = 8),0 (0.0%)
same,Number (%) of Subjects Reporting AEs By Most Direct Relationship to Study Treatment: Possible,[4]; Severe (N = 8),1 (12.5%)
same,Number (%) of Subjects Reporting AEs By Most Direct Relationship to Study Treatment: Probable,[4]; Severe (N = 8),0 (0.0%)
same,Number (%) of Subjects Reporting AEs By Most Direct Relationship to Study Treatment: Unlikely,[4]; Severe (N = 8),2 (25.0%)
same,Number of AEs Reported,[4]; Severe (N = 8),4
same,Relation of incidence of adverse events to severity of renal impairment,"[4]; human, in vivo",not related
same,Events of dyspepsia possibly or probably related,[4]; mild group,1
same,Events of stomach discomfort possibly or probably related,[4]; mild group,1
same,Events of abdominal pain possibly or probably related,[4]; moderate group,1
same,Events of diarrhea possibly or probably related,[4]; moderate group,1
same,Events of worsening renal impairment possibly or probably related,[4]; moderate group,1
same,"Creatinine Clearance at Last Observation (Ideal Body Weight), Mean (SEM) Change from Baseline","[5]; Any Lorcaserin Dose, N 3746",0.25 (0.165)
same,"Creatinine Clearance at Last Observation (Ideal Body Weight), Mean (SEM) Change from Baseline","[5]; Lorcaserin 10 mg BID Pooled, N 2992",0.47 (0.181)
